Results as given in EP0067612A1, “Penicillin derivatives” (BEECHAM GROUP PLC, priority 1981, dated 1982).
Structures can show the parent of a compound that is named as a salt.

What was measured:
Test in all cases: Antibacterial activity, MIC (agar)
Assay type in all cases: cell-based
E. coli NCTC 10418 = conditions: Escherichia coli, NCTC10418
Description: (§1) The antibacterial activities of compounds of the present invention (MIC µg/ml)

S. pyogenes CN 10 = conditions: Streptococcus pyogenes, CN10
Description: as §1

S. marcescens US 32 = conditions: Serratia marcescens, US32
Description: as §1

P. mirabilis 889 = conditions: Proteus mirabilis
Description: as §1

Ps. aeruginosa Dalgleish = conditions: Pseudomonas aeruginosa, Ps. aeruginosa Dalgleish 10^-2
Description: as §1

E. coli JT 4 = conditions: Escherichia coli, JT4
Description: as §1

S. faecalis I = conditions: Enterococcus faecalis
Description: as §1

E. coli ESS = conditions: Escherichia coli
Description: as §1

K. aerogenes A = conditions: Klebsiella aerogenes
Description: as §1

E. cloacae N1 = conditions: Enterobacter cloacae
Description: as §1

E. coli JT 425 = conditions: Escherichia coli, JT425
Description: as §1

S. aureus Oxford = conditions: Staphylococcus aureus
Description: as §1

S. aureus Russell = conditions: Staphylococcus aureus
Description: as §1

[1] = system: Ps. aeruginosa NCTC 10662; conditions: Pseudomonas aeruginosa
Description: as §1

N. catarrhalis 1502 = system: N. catarrhalis 1502
Description: as §1

P. mirabilis C 977 = conditions: Proteus mirabilis, C977
Description: as §1

P. rettgeri = conditions: Providencia rettgeri
Description: as §1

[2] = NCTC10662, Ps. aeruginosa NCTC 10662
[3] = NCTC10662, Ps. aeruginosa NCTC 10662 10^-2

| Structure (SMILES) | MIC (E. coli NCTC 10418) [µg/mL] | MIC (S. pyogenes CN 10) [µg/mL] | MIC (S. marcescens US 32) [µg/mL] | MIC (P. mirabilis 889) [µg/mL] | MIC (Ps. aeruginosa Dalgleish) [µg/mL] | MIC (E. coli JT 4) [µg/mL] | MIC (S. faecalis I) [µg/mL] | MIC (E. coli ESS) [µg/mL] | MIC (K. aerogenes A) [µg/mL] | MIC (E. cloacae N1) [µg/mL] | MIC (E. coli JT 425) [µg/mL] | MIC (S. aureus Oxford) [µg/mL] | MIC (S. aureus Russell) [µg/mL] | MIC [1, 2] [µg/mL] | MIC [1, 3] [µg/mL] | MIC (N. catarrhalis 1502) [µg/mL] | MIC (P. mirabilis C 977) [µg/mL] | MIC (P. rettgeri) [µg/mL] |
| --- | --- | --- | --- | --- | --- | --- | --- | --- | --- | --- | --- | --- | --- | --- | --- | --- | --- | --- |
| NS(=O)(=O)c1ccc(Nc2ncc(NC(=O)N[C@@H](C(=O)N[C@@H]3C(=O)N4[C@@H](C(=O)O)CS[C@H]34)c3ccccc3)c(O)n2)cc1 [Example 3, 6β-[D,2-{2-(4-Aminosulphonylanilino)-4-hvdroxypyrimidyl-5-aminocarbonylamino}-2-phenyl]acetamidobisnor penicillanic acid, sodium salt] | 0.5 | 0.2 | 2.5 | > 100 | 50 | > 100 | 25 | 0.05 | 0.2 | 1 | 5 | 1 | 50 | 5 | 2.5 | 0.05 | 0.2 | 1 |
| NS(=O)(=O)c1ccc(Nc2ncc(NC(=O)N[C@@H](C(=O)N[C@@H]3C(=O)N4[C@@H](C(=O)O)CS[C@H]34)c3ccc(O)cc3)c(O)n2)cc1 [Example 4, 6β-[D,2-2-(4-Aminosulphonylanilino)-4-hydroxypyrimidyl-5-aminocarbonylamino}-2-(4-hydroxyphenyl)]acetamido-bisnorpenicillanic acid, sodium salt] | 0.25 | 0.1 | 1 | > 100 | 25 | 100 | 25 | 0.05 | 0.25 | 2.5 | 2.5 | 2.5 | 25 | 2.5 | 0.5 | 0.05 | 2.5 | 2.5 |
